Patent US20060058243A1, “Methods and compositions for treating diabetes mellitis” (priority 2002, published 2006)

Tests used:
3T3-L1 preadipocytes [1] = experiment: Clonal expansion / cell proliferation assay by LDH activity; type: cell-based
Experimental: Preadipocytes were induced to undergo clonal expansion by MDI, or α-PGG, or β-PGG in the presence of MDI. 24 or 48 hrs after induction, the media was removed and the cells were lysed. The […] (LDH) activity of the cell lysates was measured by LDH kit. Cell growth media were also collected and their LDH activity from dead cells was also measured (not shown on this graph). LDH activity is a constant per cell in a given cell type, the LDH activity measured is proportional to the number of cells in the samples.
A cell proliferation assay was used to determine if PGG inhibits adipocyte differentiation by blocking clonal expansion. […] The basis for the difference between the anomers in clonal expansion and differentiation is not known.

3T3-L1 adipocytes = experiment: Glucose transport stimulatory (GTS) activity, 2-deoxy-D-[3H]glucose uptake; type: cell-based; conditions: 3T3-L1 adipocytes, FIG. 2
Experimental: (§1) PGG, either as a mixture or as single isomer (α or β), is added to either adipocytes (A) or preadipocytes (B). GTS activity (A) and AD activity (B) of PGG are measured by ^3H-glucose uptake. GLUT4 is not expressed in preadipocytes, so glucose uptake can be used as an indirect measurement of adipocyte differentiation.
Glucose uptake activity in cells may be analyzed by measuring the uptake of 2-deoxy-D-[^3H] glucose using a standard assay. Confluent 3T3-L1 adipocytes grown in 12-well plates are washed twice with serum-free DMEM and incubated with 1 mL of the same medium at 37° C. for 2 h. The cells are washed 3 times with Krebs-Ringer-Hepes (KRP) buffer and incubated with 0.9 mL KRP buffer at 37° C. for 30 min. […] Glucose uptake is initiated by addition of 0.1 mL KRP buffer and 37 MBq/L 2-deoxy-D-[^3H] glucose and 1 mmol/L glucose as final concentrations. After 10 min, glucose uptake is terminated by washing the cells 3 times with cold PBS. The cells are lysed with 0.7 mL of 1% Triton X-100 at 37° C. for 20 min. The radioactivity retained by the cell lysates is determined by a scintillation counter. The dosage that induces the maximal glucose uptake can be selected among the experimental samples.
3T3-L1 adipocytes were purchased from ATCC, and maintained and passed as preadipocytes in DMEM supplemented with 10% calf serum in a 37° C. incubator with 10% CO2 as required by the cells. The cells were induced to differentiate into adipocytes by addition of MDI induction cocktail as described in Liu, F., Kim, J., Li, Y., Liu, X., Li, J. & Chen, X. (2001) An extract of Lagerstroemia speciosa L. has insulin-like glucose uptake-stimulatory and adipocyte differentiation-inhibitory activities in 3T3-L1 cells. J. Nutrition 131:2242-224, which is specifically incorporated herein by reference. Varying amounts of α-PGG and β-PGG were then added to the medium and the amount of glucose taken up by control and treated cells determined using a standard glucose uptake assay, as described in Liu et al. As shown in FIG. 2A chemically synthesized and plant derived β-PGG have similar glucose transport stimulatory (GTS). The GTS activity of α-PGG is consistently 10-20% higher than that of β-PGG (FIG. 2).
Confluent 3T3-L1 adipocytes grown in 12-well plates were washed twice with serum-free DMEM and incubated with 1 mL of the same medium at 37° C. for 2 h. The cells were washed 3 times with Krebs-Ringer-Hepes (KRP) buffer and incubated with 0.9 mL KRP buffer at 37° C. for 30 min. Compounds listed in the table below were then added at 20-40 μM (final concentration?) and adipocytes were incubated at 37° C. for 15 min. Glucose uptake was initiated by addition of 0.1 mL KRP buffer and 37 MBq/L 2-deoxy-D-[3H] glucose and 1 mmol/L glucose as final concentrations. After 10 min, glucose uptake was terminated by washing the cells 3 times with cold PBS. The cells were lysed with 0.7 mL of 1% Triton X-100 at 37° C. for 20 min. The radioactivity retained by the cell lysates is determined by a scintillation counter.

ob/ob mice [2] = experiment: Plasma insulin levels in ob/ob mice after intraperitoneal injection; type: in vivo; conditions: single intraperitoneal injection
Experimental: Diabetic and obese ob/ob mice were injected intraperitoneally with either water or α-PGG. Plasma from each mouse was isolated at various times post injection and was measured for insulin levels.

db/db mice = experiment: Blood glucose in fasting diabetic db/db mice after oral dose; type: in vivo; conditions: single oral dose 25 mg/kg body weight, versus vehicle, P<0.01, FIG. 11A
Experimental: (§2) FIG. 11. Effect of PGG on blood glucose levels in db/db and ob/ob mice. Various doses of α-PGG were orally delivered without glucose to db/db mice(A) or with glucose to ob/ob mice (B) mice. At different times post the delivery, glucose was determined in samples from tail blood.
Male db/db (leptin receptor deficient) mice of 8 weeks of age may be used to determine in vivo dosages for simulating glucose uptake The mice are divided into three to four groups depending upon how many dosages are analyzed. Ten μl of a test solution with pre-determined concentrations of the test gallotannin composition is orally administered to the test mice. The negative control mice receive the same amount of water. After the administration, blood is collected from the mouse tail at various times post oral administration. The blood glucose level of a mouse at a given time post administration is measured by applying six μl of blood on a One Touch Basic Complete Diabetes Monitoring System (from Lifescan). The effective dosage range and the optimal dosage can be determined by comparison of the reduction of blood glucose levels by different dosages relative to the glucose level of the negative (water) control group.
The reduction of the glucose level is about 15-20% depending on the time post α-pGG administration (P<0.01, FIG. 11A).

ob/ob mice [3] = experiment: Glucose tolerance test in ob/ob mice; type: in vivo
Experimental: as §2
FIG. 12. PGG protects ob/ob mice from hyperglycemia immediately after glucose challenge and hypoglycemia several days after the challenge. At various time points after the glucose challenge, blood glucose levels were measured in tail blood.
To determine if α-PGG is also effective in improving glucose tolerance in diabetic and obese mice, a glucose tolerance test was performed using ob/ob mice. Glucose or glucose plus α-PGG were orally delivered into male ob/ob mice, and blood glucose levels were measured at various times post glucose/PGG administration.
A single high does of glucose in ob/ob mice can be fatal, either because of the very high levels of blood glucose levels […] after the glucose challenge or because of the abnormally low glucose levels 2-3 days after the glucose challenge. […] Although the protection mechanisms are unknown at this time, it is very likely that α-PGG protected the ob/ob mice not only by its GTS activity, but also some other activity such as AD-related activity.

3T3-L1 preadipocytes [4] = experiment: Adipocyte differentiation (AD) of preadipocytes, MDI induction, Oil Red O staining and glucose uptake; type: cell-based; conditions: about 10 days, 30 μM PGG, FIG. 8
Experimental: as §1
Ten days after induction, the cells were stained with Oil Red 0 and photographed at magnification X200. Only those cells that contain fat vesicles (triglyceride) can be stained.
After about 10 days MDI induces differentiation, which is clearly visible as the change from fibroblast-like preadipcytes to round-shaped, fat vesicle-containing adipocytes.
3T3-L1 adipocytes were purchased from ATCC, and maintained and passed as preadipocytes in DMEM supplemented with 10% calf serum in a 37° C. incubator with 10% CO2 as required by the cells. To test the effect of PGG on adipogenesis, the preadipocytes were incubated either with a differentiation-induction cocktail comprised of 3-isobutyl-1-methylxanthine, […], a cocktail comprised of 3-isobutyl-1-methylxanthine, dexamethasone (MD) and PGG; or with MDI plus PGG.
In order to study the mechanism by which PGG inhibits 3T3-L1 preadipocyte differentiation, we used gene expression studies. This strategy allows us to determine whether PGG specifically acts on genes that participate in the differentiation process. […] After about 10 days MDI induces differentiation, which is clearly visible as the change from fibroblast-like preadipcytes to round-shaped, fat vesicle-containing adipocytes (FIG. 8 middle).

[5] = in the presence of MDI, FIG. 10

**Q.** Which results are given for O=C(OC[C@H]1O[C@H](OC(=O)c2cc(O)c(O)c(O)c2)[C@H](OC(=O)c2cc(O)c(O)c(O)c2)[C@@H](OC(=O)c2cc(O)c(O)c(O)c2)[C@@H]1OC(=O)c1cc(O)c(O)c(O)c1)c1cc(O)c(O)c(O)c1 [α-PGG, 1,2,3,4,6-penta-O-galloyl-α-D-glucose]?
**A.** cell-killing compared to MDI induced cells (3T3-L1 preadipocytes [1]; data not shown): without significantly increased cell-killing; first round of clonal expansion (3T3-L1 preadipocytes [1]; [5]): not inhibited; second round of clonal expansion (3T3-L1 preadipocytes [1]; [5]): partially inhibited; GTS activity higher than that of β-PGG (3T3-L1 adipocytes): 10-20%; plasma insulin levels versus water (ob/ob mice [2]): significantly lower plasma insulin levels; reduction of the blood glucose level (db/db mice): 15-20%; protection from extremely low glucose levels after glucose challenge (ob/ob mice [3]; 2-5 days after challenge, FIG. 12): protected these mice from suffering extremely low glucose levels; time after treatment at which improved blood glucose levels could still be observed (ob/ob mice [3]; ob/ob mice, oral): ≥ 24 h; blood glucose levels compared to glucose alone (ob/ob mice [3]; oral glucose plus α-PGG, P<0.001, FIG. 11B): significantly lower blood glucose levels; differentiation of preadipocytes treated with MDI plus compound (3T3-L1 preadipocytes [4]): abolishes the differentiation
